Test results published in paper PMC8151276, “An Integrated Approach toward NanoBRET Tracers for Analysis of GPCR Ligand Engagement” (Molecules, 2021).

Assays:
Assay type in all cases: binding
GPR50 = biological target: T1, GPR50 (Homo sapiens, UniProt Q13585); assay: NanoBRET screen HiBiT-GPR50 in HEK293
T1 construct: purchased Promega (in-house HiBiT-GPCR construct library, NanoBRET)
Method: (§1) Each tracer candidate was screened across the entire library of HiBiT-GPCR constructs using NanoBRET as the detection modality. As depicted in Figure 4A, the specificity of interactions was evaluated through decrease in BRET due to competitive displacement of a bound tracer by excess parental compound. Each tracer was analyzed for binding to each HiBiT-GPCR fusion in the absence and in the presence of competing parental compound. Briefly, HEK293 cells were transfected with HiBiT-GPCR constructs diluted into promoterless DNA to reduce expression and maximize translocation to the cell surface. Each tracer candidate was then screened at concentrations of 1 μM and 0.1 μM across cells expressing these fusions. Cells were treated for 1.5 h with tracer either alone or in the presence of 20 μM competing parental compound (i.e., control). BRET was measured upon addition of purified LgBiT and subsequent complementation with HiBiT genetically fused to a GPCR. The specificity of interactions was assessed through a decrease in BRET signal due to competitive displacement of the bound tracer. To further gauge the robustness of these interactions, the fold response over the control (i.e., BRETtracer/BRETcontrol) was calculated. We chose a 1.5-fold response, which translates to ≥7-fold signal over noise as the minimal threshold required to score an interaction as positive.
(§2) HiBiT-GPCR DNA constructs were diluted in 10 mM Tris pH 8 to a final concentration of 0.01 μg/μL, arrayed in 96-well plates and stored at −20 °C. For transfection, HEK293 cells were suspended in Opti-MEM (without phenol red) supplemented with 2% fetal bovine serum (Seradigm) and 100 units/mL penicillin–streptomycin (Gibco) at a final concentration of 220,000 cells/mL and dispensed into white 96-well plates at 90 μL/well. Subsequent transfections and screens were carried using an Agilent Bravo Automated Liquid Handling Platform. First, the 96-well HiBiT DNA arrays were diluted 25-fold in Opti-MEM (without serum or phenol red) to a final concentration of 0.0004 μg/μL and 20 μL of the diluted DNAs were transferred into new 96-well plates. Next, promoterless carrier DNA (1 μg/μL) was diluted 25-fold (0.04 μg/μL) and then dispensed into the diluted arrays at 20 μL/well. Following brief mixing, Viafect transfection reagent (Promega) diluted 16-fold into Opti-MEM was dispensed into the plates at 40 μL/well. After mixing by pipetting, plates were incubated for 10 min on the pipetting station deck. The DNA-transfection reagent complexes were then added to plates containing cells. To facilitate the screen, 10 μL of DNA-transfection reagent complexes were added in duplicates to the top 4 and bottom 4 rows, resulting in two identical 48-well arrays per plate. Plates with transfected cells were incubated for 18–20 h at 37 °C/5% CO2. A screen of each tracer across the entire library using two different concentrations requires duplicate plates of transfected cells. Depending on the number of tracers being screened, transfections can be scaled up using the same ratios. The next day, for each tracer, four 20× screening solutions in tracer dilution buffer (Promega) were prepared: two duplicates at final concentration of 20 μM and two duplicates at a final concentration of 2 μM. […] The four resulting solutions were diluted 4-fold in Opti-MEM without serum or phenol red to generate 5× solutions (5 µM and 0.5 µM tracer +/− 100 μM competing compound). To screen the library, a BioTek MultiFlo FX liquid dispenser was used to dispense 22.5 µL of tracer solution to the top 4 rows and 22.5 µL tracer + competing compound solution to the 4 bottom rows. Plates were briefly mixed on an orbital shaker and incubated for 1.5 h at room temperature. […] Plates were briefly mixed on an orbital shaker and incubated for 15 min to allow complementation.

MC5R = biological target: T2, MC5R (Homo sapiens, UniProt P33032); assay: NanoBRET screen HiBiT-MC5R in HEK293
T2 construct: purchased Promega (in-house HiBiT-GPCR construct library, NanoBRET)
T2 sequence (P33032 whole entry): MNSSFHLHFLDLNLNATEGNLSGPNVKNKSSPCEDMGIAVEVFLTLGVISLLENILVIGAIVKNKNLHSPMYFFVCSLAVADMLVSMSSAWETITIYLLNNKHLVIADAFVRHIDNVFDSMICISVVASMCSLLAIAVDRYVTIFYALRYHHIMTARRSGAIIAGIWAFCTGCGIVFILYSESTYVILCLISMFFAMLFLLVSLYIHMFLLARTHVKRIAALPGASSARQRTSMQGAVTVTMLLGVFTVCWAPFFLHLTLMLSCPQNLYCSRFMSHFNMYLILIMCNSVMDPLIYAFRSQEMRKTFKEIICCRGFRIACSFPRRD
Method: as §1, §2

CNR2 = biological target: T3, CNR2 (Homo sapiens, UniProt P34972); assay: NanoBRET screen HiBiT-CNR2 in HEK293
T3 construct: purchased Promega (in-house HiBiT-GPCR construct library, NanoBRET)
T3 sequence (P34972 whole entry): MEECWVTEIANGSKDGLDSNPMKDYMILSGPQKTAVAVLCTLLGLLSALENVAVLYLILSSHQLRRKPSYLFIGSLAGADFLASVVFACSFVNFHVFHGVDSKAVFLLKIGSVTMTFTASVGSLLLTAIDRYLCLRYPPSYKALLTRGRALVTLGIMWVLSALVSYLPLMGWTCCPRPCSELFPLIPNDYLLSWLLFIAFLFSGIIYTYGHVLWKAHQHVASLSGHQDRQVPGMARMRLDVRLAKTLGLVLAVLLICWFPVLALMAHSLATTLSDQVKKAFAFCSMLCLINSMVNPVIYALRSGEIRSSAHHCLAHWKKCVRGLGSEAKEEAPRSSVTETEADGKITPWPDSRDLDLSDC
Method: as §1, §2

T1 sequence (Q13585 whole entry): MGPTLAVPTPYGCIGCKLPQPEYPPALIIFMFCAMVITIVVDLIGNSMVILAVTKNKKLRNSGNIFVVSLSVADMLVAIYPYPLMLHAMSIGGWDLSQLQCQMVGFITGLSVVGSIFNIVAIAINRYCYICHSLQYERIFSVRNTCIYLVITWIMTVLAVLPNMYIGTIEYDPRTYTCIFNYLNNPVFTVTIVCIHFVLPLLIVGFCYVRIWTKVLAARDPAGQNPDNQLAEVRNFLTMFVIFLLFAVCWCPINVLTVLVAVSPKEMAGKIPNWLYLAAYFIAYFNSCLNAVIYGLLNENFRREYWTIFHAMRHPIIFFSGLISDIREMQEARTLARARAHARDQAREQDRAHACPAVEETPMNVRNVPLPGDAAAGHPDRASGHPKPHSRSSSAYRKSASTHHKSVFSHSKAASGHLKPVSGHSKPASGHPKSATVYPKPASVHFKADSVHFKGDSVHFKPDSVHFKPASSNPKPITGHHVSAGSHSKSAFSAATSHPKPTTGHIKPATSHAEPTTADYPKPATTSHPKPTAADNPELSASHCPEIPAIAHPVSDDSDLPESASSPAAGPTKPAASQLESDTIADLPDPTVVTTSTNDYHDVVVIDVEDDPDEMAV

Row | SMILES | NanoBRET Fold Response (GPR50; GPR50, tracer 0.1μM) | NanoBRET Fold Response (GPR50; GPR50, tracer 1μM) | NanoBRET Fold Response (MC5R; MC5R, tracer 0.1μM) | NanoBRET Fold Response (MC5R; MC5R, tracer 1μM) | NanoBRET Fold Response (CNR2; CNR2, tracer 1μM) | NanoBRET Fold Response (CNR2; CNR2, tracer 0.1μM) | also measured
1 | COc1ccc2c(n1)c(CCNC(C)=O)cn2CCNC(=O)CCc1ccc2n1[B-](F)(F)[N+]1=C(c3ccc[nH]3)C=CC1=C2 [Azamelatonin-1-NB590] | – | – | – | – | – | – | NanoBRET Fold Response (GPR50; 0.1μM tracer): 0.95; NanoBRET Fold Response (GPR50; 1μM tracer): 0.91; NanoBRET Fold Response (MC5R; 0.1μM tracer): 1.01; NanoBRET Fold Response (MC5R; 1μM tracer): 1.04; NanoBRET Fold Response (CNR2; 0.1μM tracer): 0.98; NanoBRET Fold Response (CNR2; 1μM tracer): 1.01
2 | CC(C)N(CC[C@H](c1ccccc1)c1cc(CCNC(=O)c2ccc(CNC(=O)CCc3ccc4n3[B-](F)(F)[N+]3=C(c5ccc[nH]5)C=CC3=C4)cc2)ccc1O)C(C)C [Tolterodine-BZ-NB590] | 0.94 | 0.39 | 1.02 | 1.02 | 0.25 | – | –
3 | O=C(CCc1ccc2n1[B-](F)(F)[N+]1=C(c3ccc[nH]3)C=CC1=C2)NCCOCCOCCNC(=O)OCCOCCN1CCN(C2=Nc3ccccc3Sc3ccccc32)CC1 [Quetiapine-a-2-NB590] | 1.11 | 0.96 | 0.97 | 1.09 | 1.29 | 1.07 | –
4 | Cc1cc2c(s1)Nc1ccccc1N=C2N1CCN(CCCNC(=O)CCOCCOCCOCCOCCNC(=O)CCc2ccc3n2[B-](F)(F)[N+]2=C(c4ccc[nH]4)C=CC2=C3)CC1 [Olanzapine-a-2-NB590] | 1.01 | 1.03 | 0.99 | 1.04 | 1.06 | 0.23 | –
5 | O=C(CCc1ccc2n1[B-](F)(F)[N+]1=C(c3ccc[nH]3)C=CC1=C2)NCc1ccc(C(=O)NCCOCCOCCNCC(O)COc2cccc3ccccc23)cc1 (centres unmarked) [Propranolol-3-NB590] | – | – | – | – | – | – | NanoBRET Fold Response (GPR50; GPR50, 0.1μM): 1.01; NanoBRET Fold Response (GPR50; GPR50, 1μM): 1.05; NanoBRET Fold Response (MC5R; MC5R, 0.1μM): 1.00; NanoBRET Fold Response (MC5R; MC5R, 1μM): 0.98; NanoBRET Fold Response (CNR2; CNR2, 0.1μM): 0.95; NanoBRET Fold Response (CNR2; CNR2, 1μM): 1.01
6 | CN1CCN(C2=Nc3cc(Cl)ccc3N(CC(=O)NCCOCCOCCOCCOCCNC(=O)CCc3ccc4n3[B-](F)(F)[N+]3=C(c5ccc[nH]5)C=CC3=C4)c3ccccc32)CC1 [Clozapine-c-2-NB590] | – | – | – | – | – | – | NanoBRET Fold Response (MC5R; MC5R, 0.1μM tracer): 1.01; NanoBRET Fold Response (MC5R; MC5R, 1μM tracer): 1.06; NanoBRET Fold Response (CNR2; CNR2, 0.1μM tracer): 0.96; NanoBRET Fold Response (CNR2; CNR2, 1μM tracer): 1.13
7 | O=C(CCc1ccc2n1[B-](F)(F)[N+]1=C(c3ccc[nH]3)C=CC1=C2)NCc1ccc(C(=O)NCCOCCC(=O)N[C@@H]2CC[C@@]3(O)[C@H]4Cc5ccc(O)c6c5[C@@]3(CCN4CC3CC3)[C@H]2O6)cc1 [Naltrexone-3-NB590] | 0.94 | 0.97 | – | 1.04 | 0.91 | 0.92 | –
8 | CC(C)N(CC[C@H](c1ccccc1)c1cc(CCNC(=O)CCOCCOCCOCCOCCNC(=O)CCc2ccc3n2[B-](F)(F)[N+]2=C(c4ccc[nH]4)C=CC2=C3)ccc1O)C(C)C [Tolterodine-2-NB590] | 1.12 | 0.93 | – | 0.91 | 1.11 | 0.94 | –
9 | Cc1nc2n(c(=O)c1CCN1CCC(c3noc4cc(F)ccc34)CC1)CCCC2OC(=O)NCCOCCOCCOCCOCCNC(=O)CCc1ccc2n1[B-](F)(F)[N+]1=C(c3ccc[nH]3)C=CC1=C2 (centres unmarked) [Risperidone-2-NB590] | 0.99 | 1.01 | 1.02 | 1.02 | 1.12 | 1.04 | –
10 | O=C(CCOCCOCCOCCOCCNC(=O)CCc1ccc2n1[B-](F)(F)[N+]1=C(c3ccc[nH]3)C=CC1=C2)NCCCN1CCN(C2=Nc3cc(Cl)ccc3Nc3ccccc32)CC1 [Clozapine-a-2-NB590] | – | – | – | – | – | – | NanoBRET Fold Response (GPR50; GPR50, 0.1μM tracer): 1.04; NanoBRET Fold Response (GPR50; GPR50, 1μM tracer): 1.00; NanoBRET Fold Response (MC5R; MC5R, 0.1μM tracer): 1.04; NanoBRET Fold Response (CNR2; CNR2, 0.1μM tracer): 1.06; NanoBRET Fold Response (CNR2; CNR2, 1μM tracer): 1.19
11 | COc1ccc2[nH]c(-c3ccc(CNC(=O)CCOCCOCCOCCOCCNC(=O)CCc4ccc5n4[B-](F)(F)[N+]4=C(c6ccc[nH]6)C=CC4=C5)cc3)c(CCNC(C)=O)c2n1 [AzomelatoninICO9-2-NB590] | – | – | – | – | – | – | NanoBRET Fold Response (GPR50; 0.1μM tracer): 0.96; NanoBRET Fold Response (GPR50; 1μM tracer): 1.01; NanoBRET Fold Response (MC5R; 0.1μM tracer): 0.94; NanoBRET Fold Response (MC5R; 1μM tracer): 0.97; NanoBRET Fold Response (CNR2; 0.1μM tracer): 0.97; NanoBRET Fold Response (CNR2; 1μM tracer): 1.06
12 | CN1CCN(C2=Nc3cc(Cl)ccc3Nc3ccc(CNC(=O)CCOCCOCCOCCOCCNC(=O)CCc4ccc5n4[B-](F)(F)[N+]4=C(c6ccc[nH]6)C=CC4=C5)cc32)CC1 [Clozapine-b-2-NB590] | – | – | – | – | – | – | NanoBRET Fold Response (GPR50; GPR50, 0.1μM tracer): 0.98; NanoBRET Fold Response (GPR50; GPR50, 1μM tracer): 0.97; NanoBRET Fold Response (MC5R; MC5R, 0.1μM tracer): 1.05; NanoBRET Fold Response (MC5R; MC5R, 1μM tracer): 1.04; NanoBRET Fold Response (CNR2; CNR2, 0.1μM tracer): 1.05
13 | COc1ccccc1N1CCN(CCCCN2C(=O)c3ccc(CNC(=O)CCOCCNC(=O)c4ccc(CNC(=O)CCc5ccc6n5[B-](F)(F)[N+]5=C(c7ccc[nH]7)C=CC5=C6)cc4)cc3C2=O)CC1 [NAN-190-3-NB590] | 0.97 | 0.89 | 0.97 | 0.96 | 1.15 | 1.09 | –
14 | N#CN=C(NCCCOc1cccc(CN2CCCCC2)c1)NCCNC(=O)CCOCCOCCOCCOCCNC(=O)CCc1ccc2n1[B-](F)(F)[N+]1=C(c3ccc[nH]3)C=CC1=C2 [Aminopotentidine-2-NB590] | 1.02 | 0.97 | 1.01 | 0.94 | 1.16 | 1.00 | –
15 | CN(C)CCC=C1c2ccccc2CCc2ccc(C(=O)NCCNC(=O)CCOCCOCCOCCOCCNC(=O)CCc3ccc4n3[B-](F)(F)[N+]3=C(c5ccc[nH]5)C=CC3=C4)cc21 [Amitriptyline-b-2-NB590] | 0.99 | 0.99 | – | – | 1.05 | 0.96 | NanoBRET Fold Response (MC5R; tracer at 0.1μM): 1.02; NanoBRET Fold Response (MC5R; tracer at 1μM): 1.00
